The results in this text go back to patent US20120121591A1 (priority 2009, published 2012).

The subject of assay [1] is IL-2 secretion from T cells in human whole blood. The class given is cell-based. The following applies: read-out: WB (IL-2) IC50 (nM, Avg).
The subject of assay [2] is IFN-g secretion from T cells in human whole blood. The class given is cell-based.
Where [3] appears, read: read-out: WB (IFNg) IC50 (nM, Avg).

Where two headings read alike, the source gives them in different places.

As for `CC[C@H](C)[C@@H]1NC(=O)[C@@H](NC(=O)[C@H](CO)NC(=O)[C@@H](N)CCCNC(=N)N)CSSC[C@@H](C(=O)O)NC(=O)[C@H]([C@@H](C)O)NC(=O)CNC(=O)[C@@H]2CSSC[C@@H]3NC(=O)[C@H](CCC(N)=O)NC(=O)[C@H](Cc4ccccc4)NC(=O)[C@H](C)NC(=O)[C@H]([C@@H](C)O)NC(=O)[C@H](CSSC[C@H](NC(=O)[C@H](Cc4ccccc4)NC(=O)[C@H](CO)NC(=O)[C@H](CC(C)C)NC(=O)[C@H](CCCNC(=N)N)NC(=O)[C@H](Cc4ccc(O)cc4)NC(=O)[C@H](CCCCN)NC(=O)[C@H](CCSC)NC(=O)[C@H](C)NC(=O)[C@H](Cc4c[nH]cn4)NC(=O)[C@H](CCCCN)NC3=O)C(=O)N[C@@H](CCCNC(=N)N)C(=O)N[C@@H](CCCCN)C(=O)N[C@@H]([C@@H](C)O)C(=O)N2)NC(=O)[C@H](CCCNC(=N)N)NC(=O)[C@H](CO)NC(=O)[C@H](CCCCN)NC(=O)[C@@H]2CCCN2C(=O)[C@H]([C@@H](C)CC)NC(=O)[C@H]([C@@H](C)O)NC(=O)[C@H](CC(=O)O)NC1=O` [[Ala20]ShK], the IC50 was 0.3 nM in assay [1] and 0.825 nM in assay [2] (setting [3]).
With `CC[C@H](C)[C@@H]1NC(=O)[C@H]([C@@H](C)O)NC(=O)[C@H](CC(=O)O)NC(=O)[C@H](CCCNC(=N)N)NC(=O)[C@@H](NC(=O)[C@H](CO)NC(=O)[C@@H](N)CCCNC(=N)N)CSSC[C@@H](C(=O)O)NC(=O)[C@H]([C@@H](C)O)NC(=O)CNC(=O)[C@@H]2CSSC[C@@H]3NC(=O)[C@H](CCC(N)=O)NC(=O)[C@H](Cc4ccccc4)NC(=O)[C@H](C)NC(=O)[C@H]([C@@H](C)O)NC(=O)[C@H](CSSC[C@H](NC(=O)[C@H](Cc4ccccc4)NC(=O)[C@H](CO)NC(=O)[C@H](CC(C)C)NC(=O)[C@H](CCCNC(=N)N)NC(=O)[C@H](Cc4ccc(O)cc4)NC(=O)[C@H](CCCCN)NC(=O)[C@H](CCSC)NC(=O)[C@H](CO)NC(=O)[C@H](Cc4c[nH]cn4)NC(=O)[C@H](CCCCN)NC3=O)C(=O)N[C@@H](CCCNC(=N)N)C(=O)N[C@@H](CCCCN)C(=O)N[C@@H]([C@@H](C)O)C(=O)N2)NC(=O)[C@H](CCCNC(=N)N)NC(=O)[C@H](CO)NC(=O)[C@H](CCCCN)NC(=O)[C@@H]2CCCN2C1=O` [[Arg4]ShK], the figures for the IC50 in assay [1] and in assay [2] (setting [3]) were 0.051 nM and 0.081 nM, respectively.
With `CC[C@H](C)[C@@H]1NC(=O)[C@@H](NC(=O)[C@H](CO)NC(=O)[C@@H](N)CCCNC(=N)N)CSSC[C@@H](C(=O)O)NC(=O)[C@H]([C@@H](C)O)NC(=O)CNC(=O)[C@@H]2CSSC[C@@H]3NC(=O)[C@H](CCC(N)=O)NC(=O)[C@H](Cc4ccccc4)NC(=O)[C@H](C)NC(=O)[C@H]([C@@H](C)O)NC(=O)[C@H](CSSC[C@H](NC(=O)[C@H](Cc4ccccc4)NC(=O)[C@H](CO)NC(=O)[C@H](CC(C)C)NC(=O)[C@H](CCCNC(=N)N)NC(=O)[C@H](Cc4ccc(O)cc4)NC(=O)[C@H](CCCCN)NC(=O)[C@H](CCSC)NC(=O)[C@H](CO)NC(=O)[C@H](Cc4c[nH]cn4)NC(=O)[C@H](CCCNC(=N)N)NC3=O)C(=O)N[C@@H](CCCNC(=N)N)C(=O)N[C@@H](CCCCN)C(=O)N[C@@H]([C@@H](C)O)C(=O)N2)NC(=O)[C@H](CCCNC(=N)N)NC(=O)[C@H](CO)NC(=O)[C@H](CCCCN)NC(=O)[C@@H]2CCCN2C(=O)[C@H]([C@@H](C)CC)NC(=O)[C@H]([C@@H](C)O)NC(=O)[C@H](CC(=O)O)NC1=O` [[Arg18]ShK], the results for the IC50 in assay [1] and in assay [2] (setting [3]) were 0.012 nM and 0.023 nM, respectively.
For `CC[C@H](C)[C@@H]1NC(=O)[C@@H](NC(=O)[C@H](CO)NC(=O)[C@@H](N)CCCNC(=N)N)CSSC[C@@H](C(=O)O)NC(=O)[C@H](CCCNC(=N)N)NC(=O)CNC(=O)[C@@H]2CSSC[C@@H]3NC(=O)[C@H](CCC(N)=O)NC(=O)[C@H](Cc4ccccc4)NC(=O)[C@H](C)NC(=O)[C@H]([C@@H](C)O)NC(=O)[C@H](CSSC[C@H](NC(=O)[C@H](Cc4ccccc4)NC(=O)[C@H](CO)NC(=O)[C@H](CC(C)C)NC(=O)[C@H](CCCNC(=N)N)NC(=O)[C@H](Cc4ccc(O)cc4)NC(=O)[C@H](CCCCN)NC(=O)[C@H](CCSC)NC(=O)[C@H](CO)NC(=O)[C@H](Cc4c[nH]cn4)NC(=O)[C@H](CCCCN)NC3=O)C(=O)N[C@@H](CCCNC(=N)N)C(=O)N[C@@H](CCCCN)C(=O)N[C@@H]([C@@H](C)O)C(=O)N2)NC(=O)[C@H](CCCNC(=N)N)NC(=O)[C@H](CO)NC(=O)[C@H](CCCCN)NC(=O)[C@@H]2CCCN2C(=O)[C@H]([C@@H](C)CC)NC(=O)[C@H]([C@@H](C)O)NC(=O)[C@H](CC(=O)O)NC1=O` [[Arg34]ShK], in that order: 0.418 nM and 0.486 nM.
In the same order, the values of `CCCC[C@@H]1NC(=O)[C@H](CO)NC(=O)[C@H](Cc2c[nH]cn2)NC(=O)[C@H](CCC(=O)O)NC(=O)[C@@H]2CSSC[C@@H]3NC(=O)[C@H]([C@@H](C)O)NC(=O)[C@H](CCCNC(=N)N)NC(=O)[C@H](CCCNC(=N)N)NC(=O)[C@H](CSSC[C@H](NC(=O)[C@H](CCCNC(=N)N)NC(=O)[C@H](CO)NC(=O)[C@H](CCCCN)NC(=O)[C@@H]4CCCN4C(=O)[C@H]([C@@H](C)CC)NC(=O)[C@H]([C@@H](C)O)NC(=O)[C@H](CC(=O)O)NC(=O)[C@H](CCC(=O)O)NC(=O)[C@@H](NC(=O)[C@H](CO)NC(=O)[C@@H](N)CCCNC(=N)N)CSSC[C@@H](C(N)=O)NC(=O)[C@H]([C@@H](C)O)NC(=O)CNC3=O)C(=O)N[C@@H]([C@@H](C)O)C(=O)N[C@@H](C)C(=O)N[C@@H](Cc3ccccc3)C(=O)N[C@@H](CCCCN)C(=O)N2)NC(=O)[C@H](Cc2ccccc2)NC(=O)[C@H](CO)NC(=O)[C@H](CC(C)C)NC(=O)[C@H](CCCNC(=N)N)NC(=O)[C@H](Cc2ccc(O)cc2)NC(=O)[C@H](CCCCN)NC1=O` [[Glu4,18, Lys16,Nle21, Arg30]ShK-amide] are 0.97 nM and 1.99 nM.
As for `CC[C@H](C)[C@@H]1NC(=O)[C@@H](NC(=O)[C@H](CO)NC(=O)[C@@H](N)CCCNC(=N)N)CSSC[C@@H](C(=O)O)NC(=O)[C@H]([C@@H](C)O)NC(=O)CNC(=O)[C@@H]2CSSC[C@@H]3NC(=O)[C@H](CCC(N)=O)NC(=O)[C@H](Cc4ccccc4)NC(=O)[C@H](CCC(=O)O)NC(=O)[C@H]([C@@H](C)O)NC(=O)[C@H](CSSC[C@H](NC(=O)[C@H](Cc4ccccc4)NC(=O)[C@H](CO)NC(=O)[C@H](CC(C)C)NC(=O)[C@H](CCCNC(=N)N)NC(=O)[C@H](Cc4ccc(O)cc4)NC(=O)[C@H](CCCCN)NC(=O)[C@H](CCSC)NC(=O)[C@H](CO)NC(=O)[C@H](Cc4c[nH]cn4)NC(=O)[C@H](CCCCN)NC3=O)C(=O)N[C@@H](CCCNC(=N)N)C(=O)N[C@@H](CCCCN)C(=O)N[C@@H]([C@@H](C)O)C(=O)N2)NC(=O)[C@H](CCCNC(=N)N)NC(=O)[C@H](CO)NC(=O)[C@H](CCCCN)NC(=O)[C@@H]2CCCN2C(=O)[C@H]([C@@H](C)CC)NC(=O)[C@H]([C@@H](C)O)NC(=O)[C@H](CC(=O)O)NC1=O` [[Glu14]ShK], the IC50 in assay [1] was found to be 0.035 nM; in assay [2] (read-out: WB (IFNg) IC5- (nM, Avg)), 0.132 nM.
